Values after ≈ are worked out from the molar mass of the structure shown.
Columns and labels:
[1] = Stability in aqueous media (FaSSIF, SGF, PBS); assay type: physicochemical; conditions: for FaSSIF (pH 6.5) % remaining 1 h / FaSSIF (pH 6.5) % remaining 6 h / FaSSIF (pH 6.5) % remaining 24 h: FaSSIF pH 6.5, 37° C.; for PBS (pH 7.4) % remaining 1 h / PBS (pH 7.4) % remaining 6 h / PBS (pH 7.4) % remaining 24 h: PBS pH 7.4, 37° C.; for SGF (pH 1.2) % remaining 1 h / SGF (pH 1.2) % remaining 6 h / SGF (pH 1.2) % remaining 24 h: SGF pH 1.2, 37° C.
Experimental: 10 μL of a 10 mM stock solution of the Examples were dissolved in 490 μL DMSO to afford […] working solution SGF (pH 1.2):
Dissolve 0.04 g NaCl and 0.064 g pepsin in 0.14 mL HCl and add sufficient water to 20 mL volume. The pH of the test solution was 1.20±0.05.
0.056% (w/v) lecithin, 0.161% (w/v) sodium taurocholate, 0.39% (w/v) monobasic potassium phosphate, 0.77% (w/v) potassium chloride, deionized H2O. The pH of the test solution was 6.5±0.05.
30 mL of 10×PBS (pH7.4) was added into a 50 mL flask and diluted with water. The solution was mixed well and adjusted to pH 7.4 with 1 N HCl.
2 μL of the 200 μL working solution of the Examples was added into 96-deep-well plates for TO, T60, T120, T360 and T1440 timepoints. Duplicates were prepared.
Stability studies were commenced by the addition of 198 μL of the required media (e.g. Simulated Gastric Fluid pH 1.2 [SGF], Simulated Fasted State Intestinal Fluid pH 6.5 [FaSSIF]) and Phosphate Buffered Saline pH 7.4 [PBS]) to each well except TO. The samples were incubated at 37° C. at 600 rpm for the appointed time. The samples at the corresponding timepoint were removed and immediately mixed with 400 μL of cold acetonitrile containing 200 ng/mL tolbutamide and labetalol (internal standard). The samples were centrifuged at 4000 rpm at 4° C. for 20 minutes. 60 μL of the supernatant was removed and mixed with 180 μL purified water and thoroughly mixed and analysed by LCMS (Shimadzu LC 30-AD, ACQUITY UPLC BEH Phenyl 1.7 um 2.1*50 mm Part No. 186002884, with mobile phase A: 0.1% formic acid in water, mobile phase B: 0.1% formic acid in acetonitrile). Formation of parent was also monitored as a metabolite.
Samples were analysed by Mass Spectrometry QTRAP 6500+.

[2] = Solubility in simulated fluids (kinetic solubility, 24 hours); assay type: physicochemical; conditions: thermodynamic from solid, 24 hour timepoint, room temperature
Experimental: A known quantity of the Examples and control compounds were weighed into a suitable vessel (whatman miniuniprep vials) and a known volume of the required media was added (e.g. Simulated Gastric Fluid pH 1.2 [SGF], Simulated Fasted State Intestinal Fluid pH 6.5 [FaSSIF] or Phosphate Buffered Saline pH 7.4 [PBS]). The samples were subjected to vortex mixing for 2 minutes followed by agitation on a shaker for 24 hours at room temperature at 800 rpm.

[3] = assay type: in vitro ADME; conditions: rat plasma, 37° C.
Experimental: 5 μL of a 10 mM stock solution of the Examples were dissolved in 495 μL DMSO to afford 500 μL working solution Assay procedure:
98 μL plasma was added to each well of a 96-well reaction plate, using one plate per timepoint (Blank, TO, T10, T30, T60, and T120). 2 μL of working solution was added to each well of the reaction plates except Blank. Each plate was incubated at 37° C. for the indicated timepoint (0, 10, 30, 60, 120 minutes). At the end of incubation, 400 μL of stop solution (200 ng/mL tolbutamide and 200 ng/mL labetalol in 0.1% FA in ACN) was added to precipitate protein. The plates were then sealed and shaken for 20 minutes before centrifugation at 4000 rpm for 20 minutes. […] Formation of parent was also monitored as a metabolite.

[4] = simulated gastric fluid, SGF (pH 1.2)

| Compound | FaSSIF (pH 6.5) % remaining 1 h [1] | FaSSIF (pH 6.5) % remaining 6 h [1] | FaSSIF (pH 6.5) % remaining 24 h [1] | PBS (pH 7.4) % remaining 1 h [1] | PBS (pH 7.4) % remaining 6 h [1] | PBS (pH 7.4) % remaining 24 h [1] | SGF (pH 1.2) % remaining 1 h [1] | SGF (pH 1.2) % remaining 6 h [1] | SGF (pH 1.2) % remaining 24 h [1] | solubility kinetic at 24 h [2, 4] | solubility kinetic at 24 h ([2]; FaSSIF (pH 6.5)) | % Example remaining 0 min [3] | Example concentration (nM) 0 min [3] | % Example remaining 10 min [3] | Example concentration (nM) 10 min [3] |
| --- | --- | --- | --- | --- | --- | --- | --- | --- | --- | --- | --- | --- | --- | --- | --- |
| COC(=O)c1ccc2c(c1)nc(OCCOCCCCNCc1cc(F)c(OC(F)(F)F)c(F)c1)c1ccncc12 [Example 4, methyl 5-(2-(4-((3,5-difluoro-4-(trifluoromethoxy)benzyl)amino)butoxy)ethoxy)benzo[c][2,6]naphthyridine-8-carboxylate] | 90.0% | 86.6% | 93.3% | 70.3% | 22.4% | 7.9% | 93.7% | 63.7% | 16.5% |  |  |  |  |  |  |
| COC(=O)OCOC(=O)c1ccc2c(c1)nc(OCCOCCCCNCc1cc(F)c(OC(F)(F)F)c(F)c1)c1ccncc12 [Example 11, ((methoxycarbonyl)oxy)methyl 5-(2-(4-((3,5-difluoro-4-(trifluoromethoxy)benzyl)amino)butoxy)ethoxy)benzo[c][2,6]naphthyridine-8-carboxylate] | 96.4% | 97.5% | 105.9% | 81.2% | 29.3% | 19.0% | 100.2% | 66.3% | 21.5% |  |  |  |  |  |  |
| CC(C)C(=O)OCOC(=O)c1ccc2c(c1)nc(OCCOCCCCNCc1cc(F)c(OC(F)(F)F)c(F)c1)c1ccncc12 [Example 5, (isobutyryloxy)methyl 5-(2-(4-((3,5-difluoro-4-(trifluoromethoxy)benzyl)amino)butoxy)ethoxy)benzo[c][2,6]naphthyridine-8-carboxylate] | 100.2% | 97.5% | 98.8% | 76.2% | 7.9% | 2.4% | 87.0% | 55.5% | 13.0% |  |  |  |  |  |  |
| Cc1oc(=O)oc1COC(=O)c1ccc2c(c1)nc(OCCOCCCCNCc1cc(F)c(OC(F)(F)F)c(F)c1)c1ccncc12 [Example 7, (5-methyl-2-oxo-1,3-dioxol-4-yl)methyl 5-(2-(4-((3,5-difluoro-4-(trifluoromethoxy)benzyl)amino)butoxy)ethoxy)benzo[c][2,6]naphthyridine-8-carboxylate] | 101.0% | 93.5% | 89.1% | 78.9% | 16.7% | 0.7% | 98.9% | 67.2% | 26.9% | 18.5 µg/mL (≈ 27.3 µM) | 76.1 µg/mL (≈ 112 µM) | 100.0% | 1887.9 nM | 0.1% | 1.2 nM |
| CC(C)(C)C(=O)OCOC(=O)c1ccc2c(c1)nc(OCCOCCCCNCc1cc(F)c(OC(F)(F)F)c(F)c1)c1ccncc12 [Example 6, (pivaloyloxy)methyl 5-(2-(4-((3,5-difluoro-4-(trifluoromethoxy)benzyl)amino)butoxy)ethoxy)benzo[c][2,6]naphthyridine-8-carboxylate] | 112.8% | 97.0% | 109.4% | 85.2% | 27.7% | 5.1% | 88.8% | 59.8% | 20.0% |  |  | 100.0% | 1779.1 nM | 0.3% | 5.0 nM |
| O=C(OCOC(=O)c1ccc2c(c1)nc(OCCOCCCCNCc1cc(F)c(OC(F)(F)F)c(F)c1)c1ccncc12)OC1CCOCC1 [Example 16, ((((tetrahydro-2H-pyran-4-yl)oxy)carbonyl)oxy)methyl 5-(2-(4-((3,5-difluoro-4-(trifluoromethoxy)benzyl)amino)butoxy)ethoxy)benzo[c][2,6]naphthyridine-8-carboxylate] | 95.5% | 104.4% | 95.7% | 93.8% | 37.9% | 7.1% | 95.4% | 63.0% | 19.4% | 39.4 µg/mL (≈ 54.4 µM) | 99.4 µg/mL (≈ 137 µM) | 100.0% | 1845.9 nM | 0.1% | 2.7 nM |
| CC(C)OC(=O)c1ccc2c(c1)nc(OCCOCCCCNCc1cc(F)c(OC(F)(F)F)c(F)c1)c1ccncc12 [Example 2, isopropyl 5-(2-(4-((3,5-difluoro-4-(trifluoromethoxy)benzyl)amino)butoxy)ethoxy)benzo[c][2,6]naphthyridine-8-carboxylate] | 95.4% | 80.5% | 87.2% | 74.5% | 31.0% | 11.5% | 97.1% | 57.9% | 19.6% |  |  |  |  |  |  |
| CC(C)(C)OC(=O)OCOC(=O)c1ccc2c(c1)nc(OCCOCCCCNCc1cc(F)c(OC(F)(F)F)c(F)c1)c1ccncc12 [Example 15, ((tert-butoxycarbonyl)oxy)methyl 5-(2-(4-((3,5-difluoro-4-(trifluoromethoxy)benzyl)amino)butoxy)ethoxy)benzo[c][2,6]naphthyridine-8-carboxylate] | 99.0% | 97.9% | 98.6% | 100.3% | 49.7% | 7.9% | 47.5% | 3.8% | 1.8% |  |  |  |  |  |  |
| CN(C)CCOC(=O)c1ccc2c(c1)nc(OCCOCCCCNCc1cc(F)c(OC(F)(F)F)c(F)c1)c1ccncc12 [Example 3, 2-(dimethylamino)ethyl 5-(2-(4-((3,5-difluoro-4-(trifluoromethoxy)benzyl)amino)butoxy)ethoxy)benzo[c][2,6]naphthyridine-8-carboxylate] | 102.2% | 101.8% | 98.6% | 71.8% | 17.8% | 1.3% | 90.6% | 76.1% | 33.5% |  |  | 100.0% | 1830.9 nM | 0.1% | 2.7 nM |

From patent US20260085069A1, “PRODRUGS” (Cambridge Enterprise Limited, priority 2022, published 2026)
